25 molecules from patent publication US10100001B2, “Adenylyl cyclase inhibitors for neuropathic and inflammatory pain” (Purdue Research Foundation, priority 2015, dated 2018) can be followed below.

This assay addresses T1, AC1 (Homo sapiens, UniProt Q08828).
T1 construct: expressed in transfected cells
Description: Inhibition of A23187-mediated (Ca2+-stimulated) cAMP accumulation in HEK cells stably expressing AC1. The format is cell-based. The following applies: for inhibition at 4 µM / inhibition at 40 µM: HEK293, read-out: AC1 Inhibition Percentage; for inhibition at 4 µM: 4 μM compound; for inhibition at 40 µM: 40 μM compound; for IC50: HEK cells stably expressing AC1, inhibitors 30 min, then 3 μM A23187 with IBMX, average and S.E.M. of at least three independent experiments, read-out: IC50 for inhibition of the A23187-mediated cAMP response of AC1. As for the experimental part: HEK cells stably expressing AC1 were treated with inhibitors for 30 min, and subsequently incubated with 3 μM A23187 in the presence of 2 mM IBMX. Data represent the average and S.E.M. of at least three independent experiments.
A23187 is a Ca2+ ionophore, which promotes Ca2+ binding to calmodulin in the cells and, subsequent stimulation of AC1.
HEK (human embryonic kidney) cells stably expressing human AC1, were cultured in Dubelcco's Modified Eagle Medium (Life Technologies, Grand Island, N.Y.) supplemented with 5% bovine calf serum (Hyclone, Logan, Utah), 5% fetal clone I (Hyclone, Logan, Utah), Antibiotic-Antimycotic (Life Technologies, Grand Island, N.Y.), and G418 (Invivogen, San Diego, Calif.). The cells were grown to confluency in 15 cm disses, harvested using Cell Dissociation Buffer (Life Technologies, Grand Island, N.Y.), and resuspended in 4 ml of fetal bovine serum (Hyclone, Logan, Utah) containing 10% dimethyl sulfoxide (Sigma-Aldrich, St. Louis, Mo.). 1 ml of cell suspension was added to cryovials that were incubated overnight at −80° C. in a CoolCell device (BioCision, Larkspur, Calif.) for cryopreservation. On the following day, cryovials were stored in liquid N2 until the assay day.
Cryopreserved HEK-AC1 cells were thawed in a 37° C. water-bath, resuspended in 10 ml optiMEM (Life Technologies, Grand Island, N.Y.) and centrifuged at 500×g for 5 min. The cells were resuspended in 10 ml optiMEM and the centrifugation step was repeated. Cells were then resuspended in 1 ml optiMEM and counted using a Countess automated cell counter (Life Technologies, Grand Island, N.Y.). Cells were added to a white, flat bottom, low-volume, tissue culture-treated 384 well plate (PerkinElmer, Shelton, Conn.) at a final density of 2500 cells/well. The plate was centrifuged for 1 min at 100×g and incubated in a 37° C. humidified incubator for 1 h. […] Following this incubation A23187 (Sigma-Aldrich, St. Louis, Mo.) (3 μM final concentration) containing 3-isobutyl-1-methylxanthine (Sigma-Aldrich, St. Louis, Mo.) (0.5 mM final concentration) was added. The plate was centrifuged for 1 min at 100×g and incubated at room temperature for 1 h. Cyclic AMP accumulation was measured using Cisbio's dynamic 2 kit (Cisbio Bioassays, Bedford, Mass.) according to the manufacturer's instructions. Plates were analyzed for fluorescent emissions at 620 nm and 665 nm using 330 nm as the excitation wavelength in a Cytation 3 Cell Imaging Multi-Mode Reader (Biotek, Winooski, Vt.), and ratiometric analysis was carried out by dividing the 665 nm emissions by the 620 nm emissions to extrapolate the cAMP concentrations from a cAMP standard curve. The data represent the average of at least three independent experiments ran in duplicate.
In general terms: Changes in cAMP serve as a functional read-out for many G protein-coupled receptors.

T1 sequence (Q08828 whole entry): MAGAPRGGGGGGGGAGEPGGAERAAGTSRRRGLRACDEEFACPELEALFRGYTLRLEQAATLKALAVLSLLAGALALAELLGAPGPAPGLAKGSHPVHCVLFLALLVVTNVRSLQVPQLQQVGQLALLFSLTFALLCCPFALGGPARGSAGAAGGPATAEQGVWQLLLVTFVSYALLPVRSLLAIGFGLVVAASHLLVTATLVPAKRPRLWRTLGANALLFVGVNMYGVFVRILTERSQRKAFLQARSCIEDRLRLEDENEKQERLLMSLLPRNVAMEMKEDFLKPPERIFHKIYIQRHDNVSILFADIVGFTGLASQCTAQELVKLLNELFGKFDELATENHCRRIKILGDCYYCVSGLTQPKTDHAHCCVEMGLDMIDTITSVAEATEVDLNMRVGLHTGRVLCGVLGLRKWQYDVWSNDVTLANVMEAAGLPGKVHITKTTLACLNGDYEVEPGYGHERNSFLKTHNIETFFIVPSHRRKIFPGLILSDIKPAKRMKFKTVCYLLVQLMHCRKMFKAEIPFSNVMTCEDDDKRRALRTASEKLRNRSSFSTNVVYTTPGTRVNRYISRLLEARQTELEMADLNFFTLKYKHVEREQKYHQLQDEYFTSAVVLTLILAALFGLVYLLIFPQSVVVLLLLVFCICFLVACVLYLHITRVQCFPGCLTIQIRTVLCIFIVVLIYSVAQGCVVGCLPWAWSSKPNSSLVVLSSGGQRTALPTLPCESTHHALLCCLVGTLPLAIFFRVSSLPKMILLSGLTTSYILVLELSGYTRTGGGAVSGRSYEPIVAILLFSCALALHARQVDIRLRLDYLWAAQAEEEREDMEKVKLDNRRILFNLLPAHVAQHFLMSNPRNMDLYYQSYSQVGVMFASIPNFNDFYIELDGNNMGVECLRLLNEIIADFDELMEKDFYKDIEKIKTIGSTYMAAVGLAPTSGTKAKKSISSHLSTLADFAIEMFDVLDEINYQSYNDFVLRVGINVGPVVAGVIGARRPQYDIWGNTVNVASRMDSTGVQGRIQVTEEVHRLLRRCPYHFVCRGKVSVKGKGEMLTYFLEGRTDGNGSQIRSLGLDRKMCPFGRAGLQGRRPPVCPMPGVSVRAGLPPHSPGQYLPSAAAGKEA

For `CN(C/C=C/c1ccc(I)cc1)Cc1cccc2ccccc12` [Compound 7fd, (E)-3-(4-iodophenyl)-N-methyl-N-(naphthalen-1-ylmethyl)prop-2-en-1-amine], the inhibition at 4 µM was 11% and the inhibition at 40 µM was 94%.

For `COc1ccc2c(c1)C(c1ccc(Br)cc1)CN(C/C=C/c1ccc(C)cc1)CC2` (stereo not drawn) [Compound 7kb, (E)-1-(4-bromophenyl)-8-methoxy-3-(3-p-tolylallyl)-2,3,4,5-tetrahydro-1H-benzo[d]azepine], the inhibition at 4 µM came out at 8% and the inhibition at 40 µM was found to be 11%.

For the molecule `Cc1cccc(/C=C/CN(C)Cc2cccc3ccccc23)c1` [Compound 7fb, (E)-N-methyl-N-(naphthalen-1-ylmethyl)-3-m-tolylprop-2-en-1-amine], the inhibition at 4 µM was 2% and the inhibition at 40 µM was determined as 63%.

Regarding `Fc1ccc(C(c2ccc(F)cc2)N2CCN(C/C=C/c3ccccc3)CC2)cc1` [Compound 3, 1-(bis(4-fluorophenyl)methyl)-4-cinnamylpiperazine, reference compound], the inhibition at 4 µM came out at 35% and the inhibition at 40 µM turned out to be 97%.

For `CN(C/C=C/c1ccccc1)Cc1cccc2ccccc12` [Compound 1, (E)-N-methyl-N-(naphthalen-1-ylmethyl)-3-phenylprop-2-en-1-amine, reference compound], the inhibition at 4 µM worked out at 4% and the inhibition at 40 µM was 83%.

Regarding `C(=C\c1ccccc1)/CN(Cc1ccccc1)Cc1ccccc1` [Compound 7e, (E)-N,N-dibenzyl-3-phenylprop-2-en-1-amine], the inhibition at 4 µM was -9% and the inhibition at 40 µM is 75%.

Take `COC(=O)CCCN(C/C=C/c1ccc(Cl)cc1)Cc1ccc(F)cc1` [Compound 7gc, (E)-methyl 4-((3-(4-chlorophenyl)allyl)(4-fluorobenzyl)amino)butanoate]: the inhibition at 4 µM is -24% and the inhibition at 40 µM came out at 70%.

For the molecule `COc1ccc2c(c1)C(c1ccccc1)CN(C/C=C/c1ccc(C)cc1)CC2` (stereo not drawn) [Compound 7jb, (E)-8-methoxy-1-phenyl-3-(3-p-tolylallyl)-2,3,4,5-tetrahydro-1H-benzo[d]azepine], the inhibition at 4 µM amounted to 43%, the inhibition at 40 µM came to 90% and the IC50 was 16.7 µM.

As to `CN(C/C=C/c1ccc(C(F)(F)F)cc1)Cc1cccc2ccccc12` [Compound 7fh, (E)-N-methyl-N-(naphthalen-1-ylmethyl)-3-(4-(trifluoromethyl)phenyl)prop-2-en-1-amine], the inhibition at 4 µM is 30% and the inhibition at 40 µM stood at 87%.

For the molecule `Cc1ccc(/C=C/CN(CCc2c[nH]c3ccccc23)Cc2ccccc2)cc1` [Compound 7ab, (E)-N-(2-(1H-indol-3-yl)ethyl)-N-benzyl-3-p-tolylprop-2-en-1-amine], the inhibition at 4 µM turned out to be 20% and the inhibition at 40 µM was 91%.

`Brc1ccc(/C=C/CN(CCc2c[nH]c3ccccc23)Cc2ccccc2)cc1` [Compound 7ag, (E)-N-(2-(1H-indol-3-yl)ethyl)-N-benzyl-3-(4-bromophenyl)prop-2-en-1-amine]: the inhibition at 4 µM worked out at 57%, the inhibition at 40 µM is 96% and the IC50 is 6.91 µM.

As to `Cc1ccc(S(=O)(=O)N2CCCN(C/C=C/c3ccc(Cl)cc3)CC2)cc1` [Compound 7hc, (E)-1-(3-(4-chlorophenyl)allyl)-4-tosyl-1,4-diazepane], the inhibition at 4 µM is -5.5% and the inhibition at 40 µM was determined as 85%.

In the case of `COC(=O)CCCN(C/C=C/c1ccccc1)Cc1ccc(F)cc1` [Compound 7ga, methyl 4-(cinnamyl(4-fluorobenzyl)amino)butanoate], the inhibition at 4 µM came to 20% and the inhibition at 40 µM was 67%.

Consider `COc1ccc2c(c1)C(c1ccccc1)CN(CC=Cc1ccccc1)CC2` (stereo not drawn) [Compound 7ja, 3-cinnamyl-8-methoxy-1-phenyl-2,3,4,5-tetrahydro-1H-benzo[d]azepine], for which the inhibition at 4 µM was determined as 72% and the inhibition at 40 µM came to 95%.

As for `C(=C\c1ccccc1)/CN(CCc1c[nH]c2ccccc12)Cc1cccc2ccccc12` [Compound 7c, (E)-N-(2-(1H-indol-3-yl)ethyl)-N-(naphthalen-1-ylmethyl)-3-phenylprop-2-en-1-amine], the inhibition at 4 µM turned out to be 39%, the inhibition at 40 µM was 86% and the IC50 was found to be 8.95 µM.

Regarding `O=[N+]([O-])c1ccc(CN(C/C=C/c2ccccc2)CCc2c[nH]c3ccccc23)cc1` [Compound 7bc, (E)-N-(2-(1H-indol-3-yl)ethyl)-N-(4-nitrobenzyl)-3-phenylprop-2-en-1-amine], the inhibition at 4 µM came to 29% and the inhibition at 40 µM was found to be 88%.

Regarding `Clc1ccc(/C=C/CN(CCc2c[nH]c3ccccc23)Cc2ccccc2)cc1` [Compound 7af, (E)-N-(2-(1H-indol-3-yl)ethyl)-N-benzyl-3-(4-chlorophenyl)prop-2-en-1-amine], the inhibition at 4 µM was 30% and the inhibition at 40 µM stood at 98%.

`CCOC(=O)c1ccc(/C=C/CN(CCCC(=O)OC)Cc2ccc(F)cc2)cc1` [Compound 7gd, (E)-ethyl 4-(3-((4-fluorobenzyl)(4-methoxy-4-oxobutyl)amino)prop-1-enyl)benzoate]: the inhibition at 4 µM is -24% and the inhibition at 40 µM worked out at 71%.

In the case of `Cc1ccc(/C=C/CN2CCCN(S(=O)(=O)c3ccc(C)cc3)CC2)cc1` [Compound 7hb, (E)-1-(3-p-tolylallyl)-4-tosyl-1,4-diazepane], the inhibition at 4 µM was -26% and the inhibition at 40 µM worked out at 27%.

Take `CCOC(=O)c1ccc(/C=C/CN(CCc2c[nH]c3ccccc23)Cc2ccccc2)cc1` [Compound 7ai, (E)-ethyl 4-(3-((2-(1H-indol-3-yl)ethyl)(benzyl)amino)prop-1-enyl)benzoate]: the inhibition at 4 µM was determined as 36% and the inhibition at 40 µM worked out at 99%.

With `Cn1cc(CCN(C/C=C/c2ccccc2)Cc2ccccc2)c2ccccc21` [Compound 7d, (E)-N-benzyl-N-(2-(1-methyl-1H-indol-3-yl)ethyl)-3-phenylprop-2-en-1-amine], the inhibition at 4 µM was -8% and the inhibition at 40 µM turned out to be 101%.

As for `CCOC(=O)c1ccc(/C=C/CN(C)Cc2cccc3ccccc23)cc1` [Compound 7fi, (E)-ethyl 4-(3-(methyl(naphthalen-1-ylmethyl)amino)prop-1-enyl)benzoate], the inhibition at 4 µM is -40% and the inhibition at 40 µM came out at 85%.

For the molecule `CN(C/C=C/c1ccc(F)cc1)Cc1cccc2ccccc12` [Compound 7fe, (E)-3-(4-fluorophenyl)-N-methyl-N-(naphthalen-1-ylmethyl)prop-2-en-1-amine], the inhibition at 4 µM stood at 4% and the inhibition at 40 µM worked out at 85%.

For the molecule `COc1ccc2c(c1)C(c1ccccc1)CN(C/C=C/c1ccc(F)cc1)CC2` (stereo not drawn) [Compound 7jd, (E)-3-(3-(4-fluorophenyl)allyl)-8-methoxy-1-phenyl-2,3,4,5-tetrahydro-1H-benzo[d]azepine], the inhibition at 4 µM stood at 49%, the inhibition at 40 µM was determined as 91% and the IC50 stood at 14.8 µM.

For the molecule `COc1ccc2c(c1)C(c1ccccc1)CN(C/C=C/c1ccc(C(F)(F)F)cc1)CC2` (stereo not drawn) [Compound 7jf, (E)-8-methoxy-1-phenyl-3-(3-(4-(trifluoromethyl)phenyl)allyl)-2,3,4,5-tetrahydro-1H-benzo[d]azepine], the inhibition at 4 µM amounted to 17% and the inhibition at 40 µM was 88%.

Broadly, the inhibition is the relative decrease from the control value, in per cent. For orientation: IC50 means the concentration needed to halve the response being measured.
